Peptide text beside a SMILES is read from it.
Test system: CD8+ T cells
Settings: healthy seronegative HLA-A2 donor CTLs, peptide pulsed or DENV-2 infected JY cells, FIG. 1; for secretion of granzyme B (cytotoxic activity): supernatant
Excerpt: FIG. 1. […] (A.) HLA-A2 restricted CTLs directed against the peptides (peptides are represented as first 3 residues of the sequence) were generated using peripheral blood from a seronegative donor. PBMCs containing the epitope specific CTLs were harvested, washed, and cultured with the peptide […] cells overnight in an IFN-gamma ELISpot assay. (B). Identical cultures were set up as in (A) but in 96 well round bottom plates. The next day, supernatant was harvested and used to detect cytolytic activity (B) and the cells were analyzed for the marker of degranulation, CD107a (C.)
Epitope specific CD8^+ T cells (CTLs) were generated as previously described. […] Two hours after pulsing, the non-adherent cells were added back into the plates in a cytokine rich medium of RPMI-1640 supplemented with IL-7 (5 ng/mL), GM-CSF (25 ng/mL), IL-4 (50 ng/mL), and keyhole limpet hemocyanin (5 ug/mL KLH; Sigma-Aldrich) and cultured at 37° C. at 5% CO2. T cells in the culture were restimulated two weeks after the initial stimulation with autologous PBMCs depleted of CD4^+ and CD8^+ T cells and pulsed with synthetic peptides (10 ug/mL) and β2-microglobulin (1.5 ug/mL). Restimulated cells were cultured in RPMI-1640 supplemented with IL-15 (5 ng/mL), GM-CSF (12.5 ng/mL) and IL-2 (10 U/mL) for 7 days. Restimulation was performed a total of three times prior to CTL functional assays. Unless otherwise specified, all cytokines and growth factors were purchased from eBiosciences (San Diego, Calif.).

Structure (SMILES)	degranulation marker CD107a (cytotoxic activity)	secretion of granzyme B (cytotoxic activity)
CC[C@H](C)[C@H](NC(=O)[C@H](Cc1ccccc1)NC(=O)[C@H](C)N)C(=O)N[C@@H](C)C(=O)N[C@@H](Cc1ccccc1)C(=O)N[C@H](C(=O)N[C@@H](CCCNC(=N)N)C(=O)N[C@@H](Cc1ccccc1)C(=O)O)C(C)C [AFI] (H-AFIAFVRF-OH; N-terminus and C-terminus assumed)	upregulation of the degranulation marker CD107a	secretion
CC[C@H](C)[C@H](NC(=O)[C@@H](NC(=O)[C@H](C)NC(=O)[C@H](CC(N)=O)NC(=O)[C@@H]1CCCN1C(=O)[C@@H](NC(=O)[C@H](CS)NC(=O)[C@H](CC(C)C)NC(=O)[C@H](CCSC)NC(=O)[C@H](C)N)[C@@H](C)CC)[C@@H](C)CC)C(=O)O [AML] (H-AMLCIPNAII-OH; N-terminus and C-terminus assumed)	upregulation of the degranulation marker CD107a	secretion
CC[C@H](C)[C@H](NC(=O)[C@H](CCSC)NC(=O)[C@@H](NC(=O)[C@H](CC(N)=O)NC(=O)[C@@H]1CCCN1C(=O)[C@@H](NC(=O)[C@H](CS)NC(=O)[C@H](CC(C)C)NC(=O)[C@@H](N)CC(C)C)C(C)C)[C@@H](C)CC)C(=O)O [LLC] (H-LLCVPNIMI-OH; N-terminus and C-terminus assumed)	upregulation of the degranulation marker CD107a	secretion
CC[C@H](C)[C@H](NC(=O)[C@@H](NC(=O)[C@@H](N)CCSC)[C@@H](C)CC)C(=O)N[C@H](C(=O)N[C@@H](CC(=O)O)C(=O)N[C@@H](CCC(=O)O)C(=O)N[C@@H](C)C(=O)N[C@@H](Cc1c[nH]cn1)C(=O)N[C@@H](Cc1ccccc1)C(=O)O)C(C)C [MII] (H-MIIVDEAHF-OH; N-terminus and C-terminus assumed)	upregulation of the degranulation marker CD107a	secretion

Reference: patent US11344614B2, “Pharmaceutical compositions comprising dengue virus-specific multiple HLA-binding T cell epitopes” (priority 2018, dated 2022)
